Results on 47 compounds are retold here after the supplement of paper PMC10290057.

For assay [1], the system named is HCT116. Nature of the assay: efficacy (fitted maximal change in viability relative to DMSO control); higher = less cytotoxic (negative = loss of viability). The note with it: 48 h.
Assay [2] relates to HCT116. Nature of the assay: AC50 cell viability (CellTiter-Glo); higher = less potent. The following applies: 48 h.

Counter-ions that a name gives are not always drawn.
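Throughout, for AC50 cell viability (CellTiter-Glo): HCT116 colorectal carcinoma cells screened at five concentrations per compound, luminescent viability scaled between DMSO wells and empty wells on each plate, curves fitted per compound.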
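Throughout, for efficacy (fitted maximal change in viability relative to DMSO control): Luminescence-based viability readout, five doses per compound, normalized against on-plate DMSO and empty-well controls, followed by dose-response curve fitting for every drug.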

As to `CC[S+]([O-])(=O)NC1=CC(=C(OC2=C(F)C=C(F)C=C2)C=C1)\C3=C\N(C)C(=O)C4=C3C=C[NH]4` [Mivebresib (ABBV-075)], the efficacy in the assay on HCT116 [1] was -97.5%. The compound also came in with an AC50 cell viability in the assay on HCT116 [2] of 0.0525 µM.
Consider `Nc1ccccc1NC(=O)c1ccc(CNc2nccc(-c3cccnc3)n2)cc1` [Mocetinostat], for which the efficacy in the assay on HCT116 [1] is -73.2%. The AC50 cell viability in the assay with HCT116 [2] was 0.934 µM.
As to `NC/1=N/C(=O)C/2=C(/NCC3CN(CN23)C4=CC=C(C=C4)C(=O)N[C@@H](CCC(O)=O)C(O)=O)N1` (some centres undefined) [Modufolin], the efficacy in the assay with HCT116 [1] is -92%. In the assay on HCT116 [2], this compound registered an AC50 cell viability of 8.33 µM.
For `N#CCNC(=O)c1ccc(-c2ccnc(Nc3ccc(N4CCOCC4)cc3)n2)cc1` [Momelotinib] the same measures were -74.3% and 3.72 µM.
For `C[C@@H]1C[C@H]2[C@@H]3CC\C4=C\C(=O)\C=C/[C@]4(C)[C@@]3(Cl)[C@@H](O)C[C@]2(C)[C@@]1(OC(=O)C5=CC=CO5)C(=O)CCl` [Mometasone furoate] the same measures were -78.7% and 20.9 µM.
For `CC[C@@]1([C@@H]2O[C@@H]([C@H]3O[C@@](O)(CO)[C@H](C)C[C@@H]3C)C[C@@H]2C)CC[C@H]([C@]2(C)CC[C@]3(C[C@H](O)[C@@H](C)[C@@H]([C@@H](C)[C@@H](OC)[C@H](C)C(=O)[O-])O3)O2)O1` [Monensin sodium salt] the same measures were -47.4% and 0.456 µM.
As to `Oc1ccc(OCc2ccccc2)cc1` [Monobenzone], the efficacy with HCT116 [1] is -47.7%. The compound also came in with an AC50 cell viability in the assay on HCT116 [2] of 18.6 µM.
For `CCCN(CCC)C(=O)C\1=C\C2=CC=C(C=C2\N=C(N)/C1)C3=CC=C(C=C3)C(=O)N4CCCC4` [Motolimod] the same measures were -45.8% and 18.6 µM.
For `FC(F)(F)c1ccc(/C=C/c2nc(COc3ccc(CCCCn4ccnn4)cc3)co2)cc1` [Mubritinib], the efficacy in the assay with HCT116 [1] was -38.5%. Moreover, the AC50 cell viability in the assay on HCT116 [2] was 0.0209 µM.
On to `COc1c(C)c2c(c(O)c1C/C=C(\C)CCC(=O)OCCN1CCOCC1)C(=O)OC2` [Mycophenolate mofetil], for which the efficacy with HCT116 [1] was -80.7%. The same compound came in with an AC50 cell viability in the assay on HCT116 [2] of 2.63 µM.
In the case of `COc1c(C)c2c(c(O)c1C/C=C(\C)CCC(=O)O)C(=O)OC2` [Mycophenolic acid], the efficacy in the assay with HCT116 [1] is -82%. Also, the AC50 cell viability with HCT116 [2] is 2.09 µM.
As for `CC(C)(O)C[S+](=O)([O-])Nc1ccc2c(c1)CCN(C(=O)COc1cccnc1)C2` [NAMPT-IN-1], the efficacy in the assay on HCT116 [1] was -92.6%. In the assay with HCT116 [2], the AC50 cell viability came to 0.0468 µM.
For `O[C@H]1CC[C@@H](Oc2cccc3cnc(Nc4ccc5nc[nH]c5c4)nc23)CC1` [NCB-1026] the same measures were -64.6% and 0.525 µM.
For `COc1ccc(Nc2cc(-c3cnc(N)nc3)nc(N3CCOCC3)n2)cn1` [NIBR-17] the same measures were -65.5% and 2.63 µM.
For the compound `[O-][S+]1(=O)/N=C(/NC2=CC(=CC=C2)NC(=O)CCl)C3=CC=CC=C13` [NMS-859], the efficacy with HCT116 [1] was -85.1%. Further, the AC50 cell viability in the assay on HCT116 [2] amounted to 26.3 µM.
Regarding `Cc1cc(OCc2nnc(SC3CCCC3)n2-c2cccnc2)ccc1-c1ccc([S+](C)(=O)[O-])cc1` [NMS-873], the efficacy in the assay on HCT116 [1] is -104%. The AC50 cell viability in the assay on HCT116 [2] stood at 1.48 µM.
For `CN1CCN(c2ccc(OC(F)(F)F)c(Nc3ncc4c(n3)-c3c(c(C(N)=O)nn3CCO)CC4)c2)CC1` [NMS-P937] the same measures were -63.9% and 0.0661 µM.
For `CN\1N(C(=O)\C(=C1C)C(=O)NC2=CC=C(OC3=CC=NC4=C3C(=C[NH]4)C5=CC=CC=C5)C(=C2)F)C6=CC=C(F)C=C6` [NPS-1034] the same measures were -59.9% and 14.8 µM.
For `CC(C)(Cc1ccc2ccccc2c1)NC[C@@H](O)COc1cccc(Cl)c1C#N` [NPS-2143] the same measures were -97.5% and 9.34 µM.
Turning to `COc1cccc([C@@H](C)NCCCc2ccccc2Cl)c1` [NPS-R568], the efficacy in the assay on HCT116 [1] is -99.8%. In the assay on HCT116 [2], this compound yielded an AC50 cell viability of 23.5 µM.
In the same order, the values of `Nc1nc(N)c(N=O)c(OCC2CCCCC2)n1` [NU-6027] are -64.3% and 13.2 µM.
Take `N[S+](=O)([O-])c1ccc(Nc2nc(OCC3CCCCC3)c3[nH]cnc3n2)cc1` [NU-6102]: in the assay on HCT116 [1], the efficacy is -92.8%. The same compound gave an AC50 cell viability in the assay on HCT116 [2] of 16.6 µM.
In the same order, the values of `O=C1\C=C(OC2=C(C=CC=C12)C3=CC=CC4=C3SC5=C4C=CC=C5)\N6CCOCC6` [NU-7441] are -76.8% and 3.72 µM.
As for `Nc1ncnc2c1c(-c1cccc(OCc3ccccc3)c1)cn2[C@H]1C[C@@H](CN2CCC2)C1` [NVP-AEW541], the efficacy in the assay on HCT116 [1] is -85.2%. In the assay with HCT116 [2], this compound displayed an AC50 cell viability of 5.9 µM.
For the compound `CCNC(=O)c1noc(-c2cc(C(C)C)c(O)cc2O)c1-c1ccc(CN2CCOCC2)cc1` [NVP-AUY922], the efficacy with HCT116 [1] was -63.2%. In the assay on HCT116 [2], the AC50 cell viability stood at 0.105 µM.
`COc1ccc(-c2ccc3ncc4c(c3c2)n(-c2ccc(N3CCNCC3)c(C(F)(F)F)c2)c(=O)n4C)cn1` [NVP-BGT226]: in the assay on HCT116 [1], the efficacy was -117%. For the same compound, in the assay on HCT116 [2], the AC50 cell viability came out at 0.295 µM.
With `Cc1ccc(C(=O)Nc2cccc(C(F)(F)F)c2)cc1Nc1nc(-c2cccnc2)nc2c1cnn2C` [NVP-BHG712], the efficacy in the assay with HCT116 [1] was -103%. This compound also yielded an AC50 cell viability in the assay with HCT116 [2] of 8.33 µM.
As for `Fc1cc(-c2cccc3ncc(-c4cnn(C5CCNCC5)c4)nc23)cc(F)c1CN1CCOCC1` [NVP-BSK805], in the assay with HCT116 [1], the efficacy is -91%. In the assay on HCT116 [2], this compound had an AC50 cell viability of 8.33 µM.
For the compound `Cn1cc(-c2ccc3ncc(Cc4ccc5ncccc5c4)n3n2)cn1` [NVP-BVU-972], the efficacy in the assay with HCT116 [1] is -40.8%. In addition, the AC50 cell viability in the assay with HCT116 [2] stood at 18.6 µM.
For the compound `C[S+](=O)([O-])N1CCC(NC(=O)c2[nH]ncc2NC(=O)c2c(Cl)cccc2Cl)CC1` [NVP-LCQ195], in the assay with HCT116 [1], the efficacy is -64.2%. This compound also returned an AC50 cell viability in the assay with HCT116 [2] of 0.525 µM.
With `CNC(=O)c1ccccc1Nc1nc(Nc2ccc(N3CCOCC3)cc2OC)ncc1Cl` [NVP-TAE226], in the assay on HCT116 [1], the efficacy was -77.8%. This compound also came in with an AC50 cell viability in the assay with HCT116 [2] of 0.833 µM.
For `CCC[S+](=O)([O-])c1nc(NC2CC2)cc(-c2ccc3c(ccn3C3CC(C)(C)NC(C)(C)C3)c2)n1` [NVS-CECR2-1] the same measures were -93.7% and 2.78 µM.
Consider `COc1ccccc1N1CCN(CC(O)COc2cccc3ccccc23)CC1` (centres undefined) [Naftopidil], for which the efficacy in the assay on HCT116 [1] was -57.2%. For the same compound, in the assay on HCT116 [2], the AC50 cell viability stood at 18.6 µM.
For `CNC(=O)[C@H]1O[C@@H](n2cnc3c(NCc4cccc(I)c4)nc(Cl)nc32)[C@H](O)[C@@H]1O` [Namodenoson] the same measures were -94.8% and 23.5 µM.
Take `CO[C@H]1CCC(O[C@H]2C[C@H]([C@]3(C)CC[C@]4(C[C@H](O)[C@@H](C)[C@@H]([C@@H](C)/C=C(\C)C(=O)[C@H](C)C[C@H](C)C(=O)[O-])O4)O3)O[C@]3(O[C@@H]([C@H]4O[C@@](O)(CO)[C@H](C)C[C@@H]4C)C[C@@H]3C)[C@@H]2C)O[C@@H]1C` (some centres undefined) [Nanchangmycin]: in the assay on HCT116 [1], the efficacy was -101%. In the assay on HCT116 [2], this compound yielded an AC50 cell viability of 2.95 µM.
In the same order, the values of `CC(=O)c1cc2c(o1)C(=O)c1ccccc1C2=O` [Napabucasin] are -93.8% and 0.934 µM.
For `C=CC(=O)N1CC[C@@H](Oc2nc(Nc3ccc(N4CCC(N5CCN(C)CC5)CC4)cc3)c(C(N)=O)nc2CC)C1` [Naquotinib mesylate] the same measures were -103% and 3.23 µM.
On to `CC1(C)CCC(=C(CN2CCN(CC2)C3=CC=C(C=C3)C(=O)N[S+]([O-])(=O)C4=CC(=C(N[C@H](CCN5CCOCC5)CSC6=CC=CC=C6)C=C4)[S+]([O-])(=O)C(F)(F)F)\C1)/C7=CC=C(Cl)C=C7` [Navitoclax (ABT-263)], for which the efficacy in the assay with HCT116 [1] was -90.7%. In the assay with HCT116 [2], this compound gave an AC50 cell viability of 13.2 µM.
In the same order, the values of `Cc1c(O)cccc1C(=O)NC(CSc1ccccc1)C(O)CN1CC2CCCCC2CC1C(=O)NC(C)(C)C` (centres undefined) [Nelfinavir] are -101% and 20.9 µM.
In the same order, the values of `COc1cccc2c1C(=O)c1c(O)c3c(c(O)c1C2=O)C[C@@](O)(C(=O)CO)CC3OC1CC(N2CCOC(OC)C2)C(O)C(C)O1` (some centres undefined) [Nemorubicin] are -66% and 0.0263 µM.
Regarding `CCOc1cc2ncc(C#N)c(Nc3ccc(OCc4ccccn4)c(Cl)c3)c2cc1NC(=O)/C=C/CN(C)C` [Neratinib], the efficacy in the assay with HCT116 [1] is -72.5%. In addition, in the assay on HCT116 [2], the AC50 cell viability was determined as 2.35 µM.
For `Cc1ccc(C(=O)OCc2ccc([C@@H](CN)C(=O)Nc3ccc4cnccc4c3)cc2)c(C)c1` [Netarsudil] the same measures were -108% and 8.11 µM.
For `O=C(Nc1ccc([N+](=O)[O-])cc1Cl)c1cc(Cl)ccc1O` [Niclosamide], in the assay on HCT116 [1], the efficacy was -90.8%. Moreover, in the assay on HCT116 [2], the AC50 cell viability worked out at 1.05 µM.
For the compound `COC(=O)C/1=C(C)/N/C(=C(\C1C2=CC(=CC=C2)[N+]([O-])=O)C(=O)OCCCN3CCC(CC3)(C4=CC=CC=C4)C5=CC=CC=C5)C` (centres undefined) [Niguldipine], in the assay on HCT116 [1], the efficacy was -98.1%. The compound also gave an AC50 cell viability in the assay on HCT116 [2] of 8.33 µM.
For the compound `Cc1cn(-c2cc(NC(=O)c3ccc(C)c(Nc4nccc(-c5cccnc5)n4)c3)cc(C(F)(F)F)c2)cn1` [Nilotinib], in the assay with HCT116 [1], the efficacy is -46.8%. Also, the AC50 cell viability in the assay with HCT116 [2] was determined as 1.66 µM.
For `COC(=O)c1ccc2c(c1)NC(=O)/C2=C(\Nc1ccc(N(C)C(=O)CN2CCN(C)CC2)cc1)c1ccccc1` [Nintedanib] the same measures were -92.2% and 5.9 µM.
For `NC(=O)c1cccc2cn(-c3ccc([C@@H]4CCCNC4)cc3)nc12` [Niraparib] the same measures were -92% and 18.6 µM.
